Test results taken from patent US9441023B2, “Peptide YY analogs” (GlaxoSmithKline Intellectual Property Development Limited, priority 2013, dated 2016).
Where no end group is shown, it is not given here.

What was measured:
[1] = cumulative food intake, lean mice (Model A), BioDaQ system; assay type: in vivo; details: lean male C57BL/6 mice, 1 mg/kg s.c., relative to vehicle, negative = reduction
Method: Cumulative food intake after 6 h was determined for the PYY analogs in either lean (Model A) or diet-induced obese (DIO) (Model B) C57BL/6 mice in a BioDaQ system for continuous monitoring of food intake (Research Diets Inc., New Brunswick, N.J.). […] Mice were placed singly into the BioDaQ cages and acclimatized for a minimum of 6 days and were allowed ad libitum access to food and water. Approximately 1 hour prior to lights-out, animals were dosed subcutaneously with either vehicle (20 mM Acetate buffer, pH 4.9 or 20% DMSO in water) or analogs dissolved in vehicle (1 mg/kg) (8 animals per group). Once all animals have been dosed, feeder gates were opened providing ad-libitum access to food. Continuous food intake was monitored and collected for 15 hours. […] P-values <0.05 were considered to indicate a significant difference between treatment groups.

[2] = chronic (26 days) efficacy study in diabetic ZDF rats: glucose and HbA1c; assay type: in vivo, Zucker Diabetic Fatty (ZDF) rat
From the text: Male ZDF rats were 12 weeks old at the start of the study (Charles River, Inc., Boston, Mass.). […] Baseline fat mass and non-fat mass measurements were taken 3 days before the start of peptide infusion and on day 26 of treatment using a QMR instrument (Echo Medical Systems, Houston, Tex.). […] P-values <0.05 were considered to indicate a significant difference between treatment groups.

[3] = chronic (41 days) efficacy study in DIO Long Evans rats: body weight, body composition, food intake; assay type: in vivo, Long Evans rat; details: DIO LE rats
Method: Rats were 17 weeks old at the start of the study. The rats were housed 1 per cage and given ad libitum access to TD.95217 chow and water, maintained on a 12 h light/dark cycle from 5:00 AM to 5:00 PM at 21° C. and 50% relative humidity and allowed to acclimate for at least 7 days prior to baseline measurements. Baseline fat mass and non-fat mass measurements were taken 3 days before the start of peptide infusion and on day 40 of treatment using a QMR instrument (Echo Medical Systems, Houston, Tex.). […] Each rat was implanted with two osmotic pumps subcutaneously in the scapula region containing vehicle or peptide according to their treatment group. Body weight and food intake were measured twice per week beginning three days before the 41-day treatment period. On day 41 of treatment, whole blood was collected by cardiac stick under isoflurane anesthesia. Plasma and serum were then prepared from the whole blood for serum chemistry analysis. All the data are presented as mean±SEM. The data were analyzed in either Prism (GraphPad Software, Inc., La Jolla, Calif.) or Excel using a Student's T-test to compare each group to the appropriate control group. P-values <0.05 were considered to indicate a significant difference between treatment groups.

[4] = Table 1, cumulative food intake after 6 h
[5] = s.c. infusion, used as study dose

Molecule	% reduction in food intake, model A ([1]; Table 2, 6 h time point)	% reduction in food intake, model A [1, 4]	also measured
PKPVAPGCDASPAELNRQYSDLRNYWNLVTRQRY-NH2 [Peptide 15]	−17%	–	–
H-PKPEAPGCDASPEEWNRYYASLRKYLNWVTRQHY-NH2 [Peptide 14]	24%	–	–
H-PQPESPEGNASPEDWACYHAAVRHYVNLITRQRY-NH2 [Peptide 18]	−17%	–	–
CC(C)C[C@H](NC(=O)[C@H](CC(=O)O)NC(=O)[C@H](C)NC(=O)[C@H](Cc1ccc(O)cc1)NC(=O)[C@H](Cc1ccc(O)cc1)NC(=O)[C@H](CCCNC(=N)N)NC(=O)[C@H](CC(N)=O)NC(=O)[C@H](Cc1c[nH]c2ccccc12)NC(=O)[C@H](CCC(=O)O)NC(=O)[C@H](CCC(=O)O)NC(=O)[C@@H]1CCCN1C(=O)[C@H](CO)NC(=O)[C@H](C)NC(=O)[C@H](CC(=O)O)NC(=O)[C@H](CCCCN)NC(=O)CNC(=O)[C@@H]1CCCN1C(=O)[C@H](C)NC(=O)[C@H](CCC(=O)O)NC(=O)[C@@H]1CCCN1C(=O)[C@H](CCCCN)NC(=O)[C@@H]1CCCN1)C(=O)N[C@@H](CCCNC(=N)N)C(=O)N[C@@H](CCCCN)C(=O)N[C@@H](Cc1ccc(O)cc1)C(=O)N[C@@H](CC(C)C)C(=O)N[C@@H](CC(N)=O)C(=O)N[C@@H](Cc1c[nH]c2ccccc12)C(=O)N[C@H](C(=O)N[C@H](C(=O)N[C@@H](CCCNC(=N)N)C(=O)N[C@@H](CCC(N)=O)C(=O)N[C@@H](CCCNC(=N)N)C(=O)N[C@@H](Cc1ccc(O)cc1)C(N)=O)[C@@H](C)O)C(C)C [Example 8]	–	−74%	–
CC(C)C[C@H](NC(=O)[C@H](CO)NC(=O)[C@H](C)NC(=O)[C@H](Cc1ccc(O)cc1)NC(=O)[C@H](Cc1ccc(O)cc1)NC(=O)[C@H](CCCNC(=N)N)NC(=O)[C@H](CC(N)=O)NC(=O)[C@H](CC(C)C)NC(=O)[C@H](CCC(=O)O)NC(=O)[C@H](CCC(=O)O)NC(=O)[C@@H]1CCCN1C(=O)[C@H](CO)NC(=O)[C@H](C)NC(=O)[C@H](CC(=O)O)NC(=O)[C@H](CCCCN)NC(=O)CNC(=O)[C@@H]1CCCN1C(=O)[C@H](C)NC(=O)[C@H](CCC(=O)O)NC(=O)[C@@H]1CCCN1C(=O)[C@H](CCCCN)NC(=O)[C@@H]1CCCN1)C(=O)N[C@@H](CCCNC(=N)N)C(=O)N[C@@H](CCCCN)C(=O)N[C@@H](Cc1ccc(O)cc1)C(=O)N[C@@H](CC(C)C)C(=O)N[C@@H](CC(N)=O)C(=O)N[C@@H](Cc1c[nH]c2ccccc12)C(=O)N[C@H](C(=O)N[C@H](C(=O)N[C@@H](CCCNC(=N)N)C(=O)N[C@@H](CCC(N)=O)C(=O)N[C@@H](CCCNC(=N)N)C(=O)N[C@@H](Cc1ccc(O)cc1)C(N)=O)[C@@H](C)O)C(C)C [Example 31]	–	−59%	–
CC[C@H](C)[C@H](N)C(=O)N[C@@H](CCCCN)C(=O)N1CCC[C@H]1C(=O)N1CCC[C@H]1C(=O)N[C@@H](Cc1ccc(O)cc1)C(=O)N1CCC[C@H]1C(=O)NCC(=O)N[C@@H](CS)C(=O)N[C@@H](CC(=O)O)C(=O)N[C@@H](C)C(=O)N[C@@H](CO)C(=O)N1CCC[C@H]1C(=O)N[C@@H](CCC(=O)O)C(=O)N[C@@H](CCC(=O)O)C(=O)N[C@@H](CCC(N)=O)C(=O)N[C@@H](CC(N)=O)C(=O)N[C@@H](CCCCN)C(=O)N[C@@H](Cc1ccc(O)cc1)C(=O)N[C@@H](Cc1ccc(O)cc1)C(=O)N[C@@H](C)C(=O)N[C@@H](CO)C(=O)N[C@@H](CC(C)C)C(=O)N[C@@H](CCCNC(=N)N)C(=O)N[C@@H](C)C(=O)N[C@@H](Cc1ccc(O)cc1)C(=O)N[C@@H](Cc1c[nH]c2ccccc12)C(=O)N[C@@H](CC(N)=O)C(=O)N[C@@H](CC(C)C)C(=O)N[C@H](C(=O)N[C@H](C(=O)N[C@@H](CCCNC(=N)N)C(=O)N[C@@H](CCC(N)=O)C(=O)N[C@@H](CCCNC(=N)N)C(=O)N[C@@H](Cc1ccc(O)cc1)C(N)=O)[C@@H](C)O)C(C)C [Peptide 8]	−19%	–	–
H-PKPEAPGCDASPEEWNRYYASLRKYLNWVTRQNY-NH2 [Peptide 1]	5%	–	–
PKPEAPLSKQLEEEAVRYYASLRHYLNLVTRQRY-NH2 [Peptide 21]	−2%	–	–
CC(C)C[C@H](NC(=O)[C@H](CO)NC(=O)[C@H](C)NC(=O)[C@H](Cc1ccc(O)cc1)NC(=O)[C@H](Cc1ccc(O)cc1)NC(=O)[C@H](CCCNC(=N)N)NC(=O)[C@H](CC(N)=O)NC(=O)[C@H](CC(C)C)NC(=O)[C@H](CCC(=O)O)NC(=O)[C@H](CCC(=O)O)NC(=O)[C@@H]1CCCN1C(=O)[C@H](CO)NC(=O)[C@H](C)NC(=O)[C@H](CC(=O)O)NC(=O)[C@H](CCCCN)NC(=O)CNC(=O)[C@@H]1CCCN1C(=O)[C@H](C)NC(=O)[C@H](CCC(=O)O)NC(=O)[C@@H]1CCCN1C(=O)[C@H](CCCCN)NC(=O)[C@@H]1CCCN1)C(=O)N[C@@H](CCCNC(=N)N)C(=O)N[C@@H](CCCCN)C(=O)N[C@@H](Cc1ccc(O)cc1)C(=O)N[C@@H](CC(C)C)C(=O)N[C@@H](CC(N)=O)C(=O)N[C@@H](Cc1c[nH]c2ccccc12)C(=O)N[C@@H](CC(C)C)C(=O)N[C@H](C(=O)N[C@@H](CCCNC(=N)N)C(=O)N[C@@H](CCC(N)=O)C(=O)N[C@@H](CCCNC(=N)N)C(=O)N[C@@H](Cc1ccc(O)cc1)C(N)=O)[C@@H](C)O [Example 2]	–	−50%	–
CC(C)C[C@H](NC(=O)[C@H](CO)NC(=O)[C@H](C)NC(=O)[C@H](Cc1ccc(O)cc1)NC(=O)[C@H](Cc1ccc(O)cc1)NC(=O)[C@H](CCCNC(=N)N)NC(=O)[C@H](CC(N)=O)NC(=O)[C@H](Cc1c[nH]c2ccccc12)NC(=O)[C@H](CCC(=O)O)NC(=O)[C@H](CCC(=O)O)NC(=O)[C@@H]1CCCN1C(=O)[C@H](CO)NC(=O)[C@H](C)NC(=O)[C@H](CC(=O)O)NC(=O)[C@H](CCCCN)NC(=O)CNC(=O)[C@@H]1CCCN1C(=O)[C@H](C)NC(=O)[C@H](CCC(=O)O)NC(=O)[C@@H]1CCCN1C(=O)[C@H](CCCCN)NC(=O)[C@@H]1CCCN1)C(=O)N[C@@H](CCCNC(=N)N)C(=O)N[C@@H](CCCCN)C(=O)N[C@@H](Cc1ccc(O)cc1)C(=O)N[C@@H](CC(C)C)C(=O)N[C@@H](CC(N)=O)C(=O)N[C@@H](Cc1c[nH]c2ccccc12)C(=O)N[C@H](C(=O)N[C@H](C(=O)N[C@@H](CCCNC(=N)N)C(=O)N[C@@H](CCC(N)=O)C(=O)N[C@@H](CCCNC(=N)N)C(=O)N[C@@H](Cc1ccc(O)cc1)C(N)=O)[C@@H](C)O)C(C)C [Example 10]	–	−88%	–
H-IKPEAPLSKQLEEEAVRYYASLRHYLNLVTRQRY-NH2 [Peptide 2]	−12%	–	–
CC(C)C[C@H](NC(=O)[C@H](CO)NC(=O)[C@H](C)NC(=O)[C@H](Cc1ccc(O)cc1)NC(=O)[C@H](Cc1ccc(O)cc1)NC(=O)[C@H](CCCNC(=N)N)NC(=O)[C@H](CC(N)=O)NC(=O)[C@H](Cc1c[nH]c2ccccc12)NC(=O)[C@H](CCC(=O)O)NC(=O)[C@H](CCC(=O)O)NC(=O)[C@@H]1CCCN1C(=O)[C@H](CO)NC(=O)[C@H](C)NC(=O)[C@H](CC(=O)O)NC(=O)[C@H](CCCCN)NC(=O)CNC(=O)[C@@H]1CCCN1C(=O)[C@H](C)NC(=O)[C@H](CCC(=O)O)NC(=O)[C@@H]1CCCN1C(=O)[C@H](CCCCN)NC(=O)[C@@H]1CCCN1)C(=O)N[C@@H](CCCNC(=N)N)C(=O)N[C@@H](CCCCN)C(=O)N[C@@H](Cc1ccc(O)cc1)C(=O)N[C@@H](CC(C)C)C(=O)N[C@@H](CC(N)=O)C(=O)N[C@@H](Cc1c[nH]c2ccccc12)C(=O)N[C@@H](CC(C)C)C(=O)N[C@H](C(=O)N[C@@H](CCCNC(=N)N)C(=O)N[C@@H](CCC(N)=O)C(=O)N[C@@H](CCCNC(=N)N)C(=O)N[C@@H](Cc1ccc(O)cc1)C(N)=O)[C@@H](C)O [Example 6]	–	−88%	–
exendin-4	–	–	ED20 for HbA1c lowering [2, 5]: 0.0055 mg/kg/day; ED50 for weight loss [3, 5]: 0.15 mg/kg/day
PYY(3-36)NH2	–	–	ΔΔGlucose ([2]; 26 days, change from baseline and vehicle control, ED20 doses): −33.1 ± 17^ mg/dL; weight loss vs. vehicle ([3]; 40 days, s.c. osmotic pumps, ED50 doses): −1.3%; inhibition of cumulative food intake ([3]; chronic infusion, vs. vehicle control): −0.7%
H-PEPEHPGCDASPEDQNKYHASLRKYLNWVTRQRY-NH2 [Peptide 10]	−21%	–	–
H-PKPEAPGEDASPKEWNRYYASLRKYLNWVTRQRY-NH2 [Peptide 3]	−30%	–	–
